The target of data set [1] is T1, complexe de recapture de la dopamine (Rattus norvegicus, UniProt P23977).
T1 construct: expériences de compétition sur les membranes de striatum préparées comme ci-dessus; from tissue; host or cells: rat striatal membranes
In words: biochemical. The class given is binding. Particulars: for IC50: read-out: [3H] BTCP IC50. The method, then:
Exemple 35 : Affinité des composés pour les sites de liaison de la (³H)BTCP sur les membranes striatales de cerveaux de rats.
Les striata de cerveaux de rats rapidement disséqués dans la glace sont homogénéisés avec un ultra turax pendant 30 s (position 6) dans 50 volumes d'une solution de sucrose 0,32 M tamponnée par du Tris-HCl 10 mM à pH = 7,4. L'homogénat est centrifugé à 4°C à 1000g pendant 10 mln, puis le surnageant obtenu est centrifugé à 40000 g à 4°C pendant 30 min et les culots obtenus sont repris dans 1 ml de tampon par striatum.
L'affinité des composés pour le complexe de recapture de la dopamine est déterminée par des expériences de compétition sur les membranes de striatum préparées comme ci-dessus. Le ligand radioactif utilisé est la (³H)BTCP (Service des Molécules Marquées du CEA, Saclay France) à 55Ci/mmol.
Après 90 min à 4°C, 3 aliquots de 250 µl sont filtrés sous vide sur des filtres de fibre de verre GF/B (Whatman). La liaison non spécifique est obtenue dans des expériences parallè-les réalisées en présence de 10 µM de BTCP non marquée. Elle est soustraite de la liaison totale pour obtenir la liaison spécifique.

In data set [2] the test system is souris Swiss. In words: Locomotor activity of mice in the Boissier-Simon actimeter (Example 38). Type of data set: in vivo. Particulars: for Activité locomotrice Variation (%) par rapport aux témoins (100%) pour la dose 10 mg/kg,i.p.: 30 min after administration, beams crossed from 20th to 35th minute; for Activité locomotrice, effect compared with BTCP: 10 mg/kg i.p. As to the method: Exemple 38 : Mesure de l'activité locomotrice.
L'activité locomotrice de souris Swiss (mâles CD1, 25-30 g, Charles River, St Aubin lès Elbeuf, France) est mesurée dans l'actimètre Boissier-Simon (Apelex, Bagneux, France).
30 minutes après l'administration des composés à tester (10 mg/kg, i.p.), les souris sont introduites dans des cages individuelles en Plexiglass (L = 26 cm, l = 20 cm, h = 10 cm), équipées de deux cellules photoélectriques situées à 1 cm au-dessus du plancher. Chaque cellule est reliée à un compteur électromécanique. "L'activité locomotrice" correspond au nombre de rayons traversés, de la 20ème à la 35ème minute après introduction dans les cages d'actimétrie.

For data set [3], the target named is T2, capture de (³H)dopamine par les synaptosomes striataux de rat (Rattus norvegicus, UniProt P23977).
T2 construct: Les culots résultants P2 contenant les synaptosomes bruts sont ensuite utilisés sans purification supplémentaire; from tissue; host or cells: Wistar rat striatum, crude synaptosomes (P2 pellet)
T2 sequence (P23977 whole entry): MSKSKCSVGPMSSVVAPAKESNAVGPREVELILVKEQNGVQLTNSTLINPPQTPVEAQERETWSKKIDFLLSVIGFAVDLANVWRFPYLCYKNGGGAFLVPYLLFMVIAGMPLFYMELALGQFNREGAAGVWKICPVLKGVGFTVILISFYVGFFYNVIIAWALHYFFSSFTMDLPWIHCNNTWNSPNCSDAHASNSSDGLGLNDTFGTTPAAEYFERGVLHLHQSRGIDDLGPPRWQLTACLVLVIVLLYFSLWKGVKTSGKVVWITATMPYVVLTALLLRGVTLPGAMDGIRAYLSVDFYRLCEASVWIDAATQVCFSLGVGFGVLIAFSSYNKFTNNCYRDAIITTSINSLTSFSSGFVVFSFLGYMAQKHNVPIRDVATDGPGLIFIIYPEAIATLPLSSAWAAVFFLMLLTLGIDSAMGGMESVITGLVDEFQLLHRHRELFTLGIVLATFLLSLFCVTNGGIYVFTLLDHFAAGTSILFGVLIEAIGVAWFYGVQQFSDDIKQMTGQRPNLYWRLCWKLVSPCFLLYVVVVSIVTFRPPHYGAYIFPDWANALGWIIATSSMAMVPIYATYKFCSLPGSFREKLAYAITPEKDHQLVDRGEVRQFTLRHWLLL
Briefly: biochemical. As to the method:
Ce test est pratiqué selon la méthode utilisée par Vignon et Lazdunski en opérant de la façon suivante. Des rats Wistar pesant 200-250g sont tués par dislocation cervicale. Leurs cerveaux sont rapidement prélevés et les striata sont dissé-qués sur la glace. Les striata sont ensuite homogéné-isés (10 allers-retours) avec un homogénéisant Potter dans 50 volumes de tampon Tris HCl 10 mM à pH 7,4 contenant 0,32 M de sucrose. L'homogénat est ensuite centrifugé à 1000g pendant 10min à 4°C, puis le surnageant obtenu est recentrifugé à 10000g pendant 20min à 4°C. Les culots résultants P2 contenant les synaptosomes bruts sont ensuite utilisés sans purification supplémentaire.
On ajoute alors de la dopamine tritiée ((³H)DA, Amersham) à une concentration finale de 5 nM pendant 5 min à 30°C, et on interrompt sa capture par filtration de 150 µl du milieu d'incubation sur des filtres en fibres de verre GF/B (Whatman). La radioactivité retenue par les filtres est mesurée dans un compteur à scintillation liquide (LKB)avec 3 ml d'ACS (Amersham) comme scintillant. La capture non spécifique est mesurée à 4°C dans des incubations parallèles : elle est ensuite sous-traite de la capture totale mesurée à 30°C.
Les composés à tester sont solubilisés au départ dans de l'eau à une concentration de 1mM et les autres concentrations sont obtenues par des dilutions successives de cette solution mère dans l'eau.

Data set [4] is described as follows: Toxicity test in mice, 100 mg/kg intraperitoneal. On the set-up: species or system souris. Particulars: mouse, in vivo, ip, 100 mg/kg i.p., read-out: Toxicité à 100 mg/kg i.p. % mortalité à 48 h. The method, then:
Le tableau 6 annexé illustre les résultats d'essais de toxicité effectués chez la souris sur les amines substituées de l'invention à une dose de 100mg/kg par voie intrapéritonéale.

[5] abbreviates: rat striatal membranes, 0,2 nM (3H)BTCP, 90 min at 4°C.
The mark [6] stands for this setting: ratio of IC50 at the PCP receptor to IC50 at the dopamine reuptake complex.
The mark [7] stands for this setting: rat striatal synaptosomes, 5 nM (3H)DA, 5 min at 30°C, read-out: [3H] DA IC50.

Structures are written as SMILES. Like-named read-outs stand apart in the source and are kept apart here. A value given as a limit tells only on which side of the number the result lay.

T1 sequence (P23977 whole entry, one chain of several): as the sequence (P23977 whole entry) above

By IC50 is commonly meant the concentration that gives 50% inhibition. On to `OC1CCN(C2(c3cc4ccccc4s3)CCCCC2)CC1` [composé 26, (benzo(b)thiophényl-2)-1( (ol-4-pipéridino)-1)-1 cyclohexane], for which the IC50 in data set [1] (setting [5]) is 15.9 nM. Further, the “Sélectivité IC50[^3H]TCP / IC50[^3H]BTCP” value in data set [1] (setting [6]) came out at 2006. In addition, the “Activité locomotrice Variation (%) par rapport aux témoins (100%) pour la dose 10 mg/kg,i.p.” value in data set [2] is listed as “+252±45%”.
Take `CCCN(CCC)C1(c2cc3ccccc3s2)CCCCC1` [composé no 3, (benzo(b)thiophényl-2)-1 (dipropylamino-1)-1 cyclohexane]: the IC50 amounted to 12.9 nM in data set [3] (setting [7]) and 7.2 nM in data set [1] (setting [5]). Further, in data set [1], the “Sélectivité pour le complexe de recapture de la dopamine comparé au récepteur de la PCP, result in words” value is on record as “très bons résultats”. The “Sélectivité IC50[^3H]TCP / IC50[^3H]BTCP” value in data set [1] (setting [6]) is listed as 58889. The “Activité locomotrice Variation (%) par rapport aux témoins (100%) pour la dose 10 mg/kg,i.p.” value in data set [2] is “+53±23%”. Further, in data set [4], the mortality at 48 h was 0%.
On to `CC1CC(C)CN(C2(c3cc4ccccc4s3)CCCCC2)C1` (stereo not drawn) [composé n^o 6, (benzo(b)thiophényl-2)-1 ((diméthyl-3,5 pipéridino)-1)-1 cyclohexane], for which the values for the IC50 in data set [3] (setting [7]) and in data set [1] (setting [5]) were 14.9 nM and 12.7 nM, respectively. In addition, the “Sélectivité IC50[^3H]TCP / IC50[^3H]BTCP” value in data set [1] (setting [6]) is given as >>7874. In addition, in data set [2], the “Activité locomotrice Variation (%) par rapport aux témoins (100%) pour la dose 10 mg/kg,i.p.” value is on record as “+84±12%”. Besides, in data set [4], the mortality at 48 h was 10%.
For `C[C@H]1CC[C@@](c2cc3ccccc3s2)(N2CCCCC2)CC1` [composé n^o 21, (benzo(b)thiophényl-2)-1 c-méthyl-4-r-(pipéridino-1)-1 cyclohexane], in data set [3] (setting [7]), the half-inhibitory concentration (IC50) worked out at 9.4 nM. Moreover, the “Sélectivité pour le complexe de recapture de la dopamine comparé au récepteur de la PCP, result in words” value in data set [1] is “très bons résultats”. Moreover, the IC50 in data set [1] (setting [5]) is 6.9 nM. Besides, the “Sélectivité IC50[^3H]TCP / IC50[^3H]BTCP” value in data set [1] (setting [6]) is given as >>14493. Moreover, in data set [2], the “Activité locomotrice, effect compared with BTCP” value is listed as “effet supérieur à celui du BTCP” and the “Activité locomotrice Variation (%) par rapport aux témoins (100%) pour la dose 10 mg/kg,i.p.” value is listed as “+175±27%”. Further, the mortality at 48 h in data set [4] turned out to be 0%.
For the compound `c1ccc2sc(C3(N4CCCCC4)CCCCC3)cc2c1` [BTCP, (benzo(b)thiophényl-2)-1 (pipéridino -1) cyclohexane, reference compound], the IC50 was determined as 13.9 nM in data set [3] and 8.4 nM in data set [1]. For the same compound, the “Sélectivité IC50[^3H]TCP / IC50[^3H]BTCP” value in data set [1] (rat) amounted to 2380. Moreover, in data set [2], the “Activité locomotrice Variation (%) par rapport aux témoins (100%) pour la dose 10 mg/kg,i.p.” value is given as “+122±12%”. Also, in data set [4], the mortality at 48 h was determined as 0%.
Regarding `BrCC1CCCN(C2(c3cc4ccccc4s3)CCCCC2)C1` (stereo not drawn) [composé n^o 10, (benzo(b)thiophényl-2)-1 ((bromométhyl-3 pipéridino)-1)-1 cyclohexane], the figures for the 50% inhibitory concentration (IC50) in data set [3] (setting [7]) and in data set [1] (setting [5]) were 57.1 nM and 34.5 nM, respectively. Further, in data set [1] (setting [6]), the “Sélectivité IC50[^3H]TCP / IC50[^3H]BTCP” value was >>2898. Moreover, the “Activité locomotrice Variation (%) par rapport aux témoins (100%) pour la dose 10 mg/kg,i.p.” value in data set [2] is given as “+30±19%”. Besides, in data set [4], the mortality at 48 h is 0%.
As to `C[C@H]1CC[C@](c2cc3ccccc3s2)(N2CCCCC2)CC1` [composé n^o 20, (benzo(b)thiophényl-2)-1-t-méthyl-4-r-(pipéridino-1)-1 cyclohexane], the IC50 in data set [3] (setting [7]) is 21.4 nM; in data set [1] (setting [5]), 20.7 nM. Besides, the “Sélectivité IC50[^3H]TCP / IC50[^3H]BTCP” value in data set [1] (setting [6]) turned out to be 5410. Also, the “Activité locomotrice Variation (%) par rapport aux témoins (100%) pour la dose 10 mg/kg,i.p.” value in data set [2] is on record as “+40±22%”. Further, the mortality at 48 h in data set [4] stood at 0%.
`CC1CCCN(C2(c3cc4ccccc4s3)CCCCC2)C1` (stereo not drawn) [composé n^o 2, (benzo(b)thiophényl-2)-1 ((méthyl-3 pipéridino)-1)-1 cyclohexane]: the 50% inhibitory concentration (IC50) in data set [3] (setting [7]) amounted to 9.3 nM. Besides, in data set [1] (setting [5]), the half-maximal inhibitory concentration (IC50) amounted to 13.3 nM. The “Sélectivité IC50[^3H]TCP / IC50[^3H]BTCP” value in data set [1] (setting [6]) is listed as 3910. For the same compound, in data set [2], the “Activité locomotrice, effect compared with BTCP” value is “effet supérieur à celui du BTCP” and the “Activité locomotrice Variation (%) par rapport aux témoins (100%) pour la dose 10 mg/kg,i.p.” value was “+160±25%”. In addition, in data set [4], the mortality at 48 h was 10%.
On to `c1ccc2oc(C3(N4CCCCC4)CCCCC3)cc2c1` [composé n^o 4, (benzo(b)furannyl-2)-1 (pipéridino-1)-1 cyclohexane], for which the IC50 in data set [3] (setting [7]) came to 33.8 nM. Further, the half-inhibitory concentration (IC50) in data set [1] (setting [5]) was determined as 19.1 nM. Besides, the “Sélectivité IC50[^3H]TCP / IC50[^3H]BTCP” value in data set [1] (setting [6]) was determined as 2094. In data set [2], the “Activité locomotrice, effect compared with BTCP” value was “effet supérieur à celui du BTCP” and the “Activité locomotrice Variation (%) par rapport aux témoins (100%) pour la dose 10 mg/kg,i.p.” value is on record as “+169±19%”. Moreover, the mortality at 48 h in data set [4] came to 10%.
